Test results: patent publication US20120122148A1, “Media For The Specific Detection Of Gram-Negative Bacteria Resistant To Beta-Lactam Antibiotics” (bioMerieux, SA, priority 2009, published 2012)

Experiments:
Assay in all cases: Growth and enzymatic activity on ChromID CPS-based selective media
Format in all cases: cell-based
Conditions in all cases: cefpodoxime 4 mg/l (T), cefepime 0.25 mg/l (A), cefamandole 3 mg/l (B), cefuroxime 3 mg/l (C), each with 300 mg/l cloxacillin
[1] = tested on: Escherichia coli 0505101 (ESBL); set-up: Enz act.: key to the marks not given beside the values
From the text: (§1) Choice of strains: The inventors selected strains which make it possible to evaluate the activity of antibiotics with respect to Gram-negative species: enterobacteria and nonfermenting bacilli. In particular, ESBL-producing strains, high-level cephalosporinase-producing strains (HL Case) and strains without a particular resistance profile, termed wild-type strains, were used.
(§2) Preparation of media: The media tested were media composed of the peptone base of the ChromID CPS medium (bioMérieux ref 43541) to which were added, after autoclaving, in molten media, 300 mg/l cloxacillin and, for medium T: 4 mg/l cefpodoxime, for medium A: 0.25 mg/L of cefepime, for medium B: 3 mg/l of cefamandole and for medium C: 3 mg/l of cefuroxime.
(§3) Inoculation of media: The media are inoculated by carrying out a 3-quadrant streaking method using bacterial suspensions at 0.5 McF. The media are then incubated for 24 hours at 37° C.
(§4) Reading of media: The media are observed visually after 18 h and 24 hours of incubation, the growth density and also the colorations and coloration strengths are evaluated according to the scale below: • − or 0: absence of growth or of expression of enzymatic acitivity (i.e. no coloration) • +: weak growth, or enzymatic activity • ++: very strong growth density or strong enzymatic acitivity (very strong coloration)

[2] = tested on: Enterobacter aerogenes 0502112 (ESBL); set-up: key to the marks not given beside the values
From the text: as §1, §2, §3, §4

[3] = tested on: Klebsiella oxytoca 0502094 (ESBL); set-up: key to the marks not given beside the values
From the text: as §1, §2, §3, §4

[4] = tested on: Escherichia coli 0411146 (ESBL); set-up: key to the marks not given beside the values
From the text: as §1, §2, §3, §4

[5] = tested on: Enterobacter spp 9306069 (HL case); set-up: key to the marks not given beside the values
From the text: as §1, §2, §3, §4

[6] = tested on: Proteus mirabilis 0105105 (HL case)
From the text: as §1, §2, §3, §4

[7] = tested on: Proteus mirabilis 0105109 (HL case)
From the text: as §1, §2, §3, §4

[8] = tested on: Proteus mirabilis 9709068 (ESBL)
From the text: as §1, §2, §3, §4

[9] = tested on: Morganella morganii 9904104 (HL case)
From the text: as §1, §2, §3, §4

[10] = tested on: Serratia fonticola 8001047 (Wild-type)
From the text: as §1, §2, §3, §4

[11] = tested on: Enterobacter spp 0503037 (Wild-type)
From the text: as §1, §2, §3, §4

[12] = tested on: Klebsiella oxytoca 0105100 (HL case)
From the text: as §1, §2, §3, §4

Cn1nnnc1SCC1=C(C(=O)O)N2C(=O)[C@@H](NC(=O)[C@H](O)c3ccccc3)[C@H]2SC1 [Cefamandole, cefamandole]
++: Enz act. ([1]; 18 h at 37° C.) | Growth ([1]; 18 h at 37° C.) | Enz act. ([1]; 24 h at 37° C.) | Growth ([1]; 24 h at 37° C.) | Enz act. ([2]; 18 h at 37° C.) | Growth ([2]; 18 h at 37° C.) | Enz act. ([2]; 24 h at 37° C.) | Growth ([2]; 24 h at 37° C.) | Enz act. ([3]; 18 h at 37° C.) | Growth ([3]; 18 h at 37° C.) | Enz act. ([3]; 24 h at 37° C.) | Growth ([3]; 24 h at 37° C.) | Enz act. ([4]; 18 h at 37° C.) | Growth ([4]; 18 h at 37° C.) | Enz act. ([4]; 24 h at 37° C.) | Growth ([4]; 24 h at 37° C.) | Enz act. ([5]; 18 h at 37° C.) | Growth ([5]; 18 h at 37° C.) | Enz act. ([5]; 24 h at 37° C.) | Growth ([5]; 24 h at 37° C.) | Enz act. ([10]; 24 h at 37° C.) | Enz act. ([11]; 18 h at 37° C.) | Growth ([11]; 18 h at 37° C.) | Enz act. ([11]; 24 h at 37° C.) | Growth ([11]; 24 h at 37° C.) | Enz act. ([12]; 24 h at 37° C.)
−: Enz act. ([6]; 18 h at 37° C.) | Growth ([6]; 18 h at 37° C.) | Enz act. ([6]; 24 h at 37° C.) | Growth ([6]; 24 h at 37° C.) | Enz act. ([7]; 18 h at 37° C.) | Growth ([7]; 18 h at 37° C.) | Enz act. ([7]; 24 h at 37° C.) | Growth ([7]; 24 h at 37° C.) | Enz act. ([8]; 18 h at 37° C.) | Enz act. ([9]; 18 h at 37° C.) | Growth ([9]; 18 h at 37° C.) | Enz act. ([9]; 24 h at 37° C.) | Growth ([9]; 24 h at 37° C.)
+: Growth ([8]; 18 h at 37° C.) | Enz act. ([8]; 24 h at 37° C.) | Growth ([8]; 24 h at 37° C.) | Enz act. ([10]; 18 h at 37° C.) | Growth ([10]; 18 h at 37° C.) | Growth ([10]; 24 h at 37° C.) | Enz act. ([12]; 18 h at 37° C.) | Growth ([12]; 18 h at 37° C.) | Growth ([12]; 24 h at 37° C.)

COCC1=C(C(=O)O)N2C(=O)[C@@H](NC(=O)/C(=N\OC)c3csc(N)n3)[C@H]2SC1 [Cefpodoxime, cefpodoxime]
−: Enz act. ([6]; 18 h at 37° C.) | Growth ([6]; 18 h at 37° C.) | Enz act. ([6]; 24 h at 37° C.) | Growth ([6]; 24 h at 37° C.) | Enz act. ([7]; 18 h at 37° C.) | Growth ([7]; 18 h at 37° C.) | Enz act. ([7]; 24 h at 37° C.) | Growth ([7]; 24 h at 37° C.) | Enz act. ([9]; 18 h at 37° C.) | Growth ([9]; 18 h at 37° C.) | Enz act. ([9]; 24 h at 37° C.) | Growth ([9]; 24 h at 37° C.)
++: Enz act. ([1]; 18 h at 37° C.) | Enz act. ([1]; 24 h at 37° C.) | Growth ([1]; 24 h at 37° C.) | Enz act. ([2]; 18 h at 37° C.) | Growth ([2]; 18 h at 37° C.) | Enz act. ([2]; 24 h at 37° C.) | Growth ([2]; 24 h at 37° C.) | Enz act. ([3]; 18 h at 37° C.) | Growth ([3]; 18 h at 37° C.) | Enz act. ([3]; 24 h at 37° C.) | Growth ([3]; 24 h at 37° C.) | Enz act. ([4]; 18 h at 37° C.) | Growth ([4]; 18 h at 37° C.) | Enz act. ([4]; 24 h at 37° C.) | Growth ([4]; 24 h at 37° C.) | Enz act. ([5]; 18 h at 37° C.) | Growth ([5]; 18 h at 37° C.) | Enz act. ([5]; 24 h at 37° C.) | Growth ([5]; 24 h at 37° C.) | Enz act. ([10]; 24 h at 37° C.) | Enz act. ([11]; 18 h at 37° C.) | Growth ([11]; 18 h at 37° C.) | Enz act. ([11]; 24 h at 37° C.) | Growth ([11]; 24 h at 37° C.) | Enz act. ([12]; 18 h at 37° C.) | Growth ([12]; 18 h at 37° C.) | Enz act. ([12]; 24 h at 37° C.) | Growth ([12]; 24 h at 37° C.)
+: Growth ([1]; 18 h at 37° C.) | Enz act. ([8]; 18 h at 37° C.) | Growth ([8]; 18 h at 37° C.) | Enz act. ([8]; 24 h at 37° C.) | Growth ([8]; 24 h at 37° C.) | Enz act. ([10]; 18 h at 37° C.) | Growth ([10]; 18 h at 37° C.) | Growth ([10]; 24 h at 37° C.)

CO/N=C(\C(=O)N[C@@H]1C(=O)N2C(C(=O)O)=C(COC(N)=O)CS[C@H]12)c1ccco1 [Cefuroxime, cefuroxime]
++: Enz act. ([1]; 18 h at 37° C.) | Growth ([1]; 18 h at 37° C.) | Enz act. ([1]; 24 h at 37° C.) | Growth ([1]; 24 h at 37° C.) | Enz act. ([2]; 18 h at 37° C.) | Growth ([2]; 18 h at 37° C.) | Enz act. ([2]; 24 h at 37° C.) | Growth ([2]; 24 h at 37° C.) | Enz act. ([3]; 18 h at 37° C.) | Growth ([3]; 18 h at 37° C.) | Enz act. ([3]; 24 h at 37° C.) | Growth ([3]; 24 h at 37° C.) | Enz act. ([4]; 18 h at 37° C.) | Growth ([4]; 18 h at 37° C.) | Enz act. ([4]; 24 h at 37° C.) | Growth ([4]; 24 h at 37° C.) | Enz act. ([5]; 18 h at 37° C.) | Growth ([5]; 18 h at 37° C.) | Enz act. ([5]; 24 h at 37° C.) | Growth ([5]; 24 h at 37° C.) | Enz act. ([7]; 18 h at 37° C.) | Enz act. ([7]; 24 h at 37° C.) | Enz act. ([8]; 24 h at 37° C.) | Enz act. ([10]; 18 h at 37° C.) | Growth ([10]; 18 h at 37° C.) | Enz act. ([10]; 24 h at 37° C.) | Growth ([10]; 24 h at 37° C.) | Enz act. ([11]; 18 h at 37° C.) | Growth ([11]; 18 h at 37° C.) | Enz act. ([11]; 24 h at 37° C.) | Growth ([11]; 24 h at 37° C.) | Enz act. ([12]; 18 h at 37° C.) | Enz act. ([12]; 24 h at 37° C.) | Growth ([12]; 24 h at 37° C.)
−: Enz act. ([6]; 18 h at 37° C.) | Growth ([6]; 18 h at 37° C.) | Enz act. ([6]; 24 h at 37° C.) | Growth ([6]; 24 h at 37° C.) | Enz act. ([9]; 18 h at 37° C.) | Growth ([9]; 18 h at 37° C.) | Enz act. ([9]; 24 h at 37° C.) | Growth ([9]; 24 h at 37° C.)
+: Growth ([7]; 18 h at 37° C.) | Growth ([7]; 24 h at 37° C.) | Enz act. ([8]; 18 h at 37° C.) | Growth ([8]; 18 h at 37° C.) | Growth ([8]; 24 h at 37° C.) | Growth ([12]; 18 h at 37° C.)
